Data from ChEMBL document CHEMBL5331045, “Recent advances in β-lactamase inhibitor chemotypes and inhibition modes” (Eur J Med Chem, 2022).

Key:
[1] = Binding affinity to beta-lactamase AmpC (unknown origin) assessed as inhibition constant by measuring nitrocefin hydrolysis by spectrometric analysis; set-up: species or system Homo sapiens
[2] = Binding affinity to Escherichia coli SHV-2 assessed as inhibition constant using nitrocefin as substrate by microplate reader analysis
[3] = Binding affinity to Escherichia coli CTX-M-9 assessed as inhibition constant using nitrocefin as substrate by microplate reader analysis
Beta-lactamase CTX-M-27 = Beta-lactamase CTX-M-27 (Escherichia coli, UniProt Q840M4); assay: Binding affinity to Escherichia coli CTX-M-27 assessed as inhibition constant using nitrocefin as substrate by microplate reader analysis
[4] = Binding affinity to Escherichia coli OXA-48 assessed as inhibition constant using nitrocefin as substrate by microplate reader analysis
Beta-lactamase TEM-1 [5] = biological target: T1, Beta-lactamase TEM-1 (Escherichia coli, UniProt Q4GY26); assay: Binding affinity to Escherichia coli TEM1 assessed as inhibition constant using nitrocefin as substrate by microplate reader analysis
[6] = biological target: Class A carbapenemase KPC-2 (Escherichia coli, UniProt A8DS27); assay: Binding affinity to Escherichia coli KPC-2 assessed as inhibition constant using nitrocefin as substrate by microplate reader analysis
[7] = Binding affinity to Escherichia coli CTX-M-15 assessed as inhibition constant using nitrocefin as substrate by microplate reader analysis
Beta-lactamase CTX-M-14 [8] = biological target: T2, Beta-lactamase CTX-M-14 (Escherichia coli, UniProt Q9L5C7); assay: Binding affinity to Escherichia coli CTX-M-14 assessed as inhibition constant using nitrocefin as substrate by microplate reader analysis
Beta-lactamase [9] = biological target: Beta-lactamase (Escherichia coli K-12, UniProt P00811); assay: Binding affinity to Escherichia coli AmpC assessed as inhibition constant using nitrocefin as substrate by microplate reader analysis
[10] = Inhibition of IMP1 (unknown origin); set-up: species or system Bacteria
Beta-lactamase L1 = Beta-lactamase L1 (Stenotrophomonas maltophilia, UniProt P52700); assay: Inhibition of Stenotrophomonas maltophilia L1 preincubated for 30 mins followed by nitrocefin solution measured by UV based microtitre plate analysis
[11] = Inhibition of VIM2 (unknown origin); set-up: species or system Bacteria
[12] = Binding affinity to TEM30 (unknown origin) assessed as inhibition constant; set-up: species or system Homo sapiens
[13] = Binding affinity to TEM1 (unknown origin) assessed as inhibition constant; set-up: species or system Homo sapiens
[14] = Binding affinity to AmpC (unknown origin) assessed as inhibition constant; set-up: species or system Homo sapiens
[15] = Binding affinity to N289A (unknown origin) assessed as inhibition constant; set-up: species or system Homo sapiens
[16] = Inhibition of Pseudomonas aeruginosa KPC2
Beta-lactamase [17] = biological target: Beta-lactamase (Pseudomonas aeruginosa (strain ATCC 15692 / PAO1 / 1C / PRS 101 / LMG12228), UniProt P24735); assay: Inhibition of Pseudomonas aeruginosa AmpC
[18] = Inhibition of Pseudomonas aeruginosa OXA-24
[19] = Inhibition of Imis (unknown origin) using cefazolin as substrate; set-up: species or system Homo sapiens
[20] = biological target: T3, Metallo-beta-lactamase type 2 (Bacteria, UniProt C7C422); assay: Inhibition of NDM1 (unknown origin) using cefazolin as substrate
[21] = Inhibition of L1 (unknown origin) using cefazolin as substrate; set-up: species or system Homo sapiens
[22] = Inhibition of IMP1 (unknown origin) using cefazolin as substrate; set-up: species or system Homo sapiens
[23] = Inhibition of KPC-2 (unknown origin); set-up: species or system Homo sapiens
[24] = Binding affinity to Acinetobacter derived cephalosporinase 7 (D24-K383 residues) assessed as inhibition constant
Escherichia coli [25] = assay: Antimicrobial activity against Escherichia coli expressing DHA-1 in presence of piperacillin; format: functional
Escherichia coli [26] = assay: Antimicrobial activity against Escherichia coli expressing AmpC in presence of piperacillin; format: functional
Escherichia coli [27] = assay: Antimicrobial activity against Escherichia coli expressing OXA-10 in presence of piperacillin; format: functional
Escherichia coli [28] = assay: Antimicrobial activity against Escherichia coli expressing OXA-23 in presence of piperacillin; format: functional
Escherichia coli [29] = assay: Antimicrobial activity against Escherichia coli expressing SHV-12 in presence of piperacillin; format: functional
Escherichia coli [30] = assay: Antimicrobial activity against Escherichia coli expressing OXA-40 in presence of piperacillin; format: functional
Escherichia coli [31] = assay: Antimicrobial activity against Escherichia coli expressing TEM10 in presence of piperacillin; format: functional
Escherichia coli [32] = assay: Antimicrobial activity against Escherichia coli expressing KPC-2 in presence of piperacillin; format: functional
Escherichia coli [33] = assay: Antimicrobial activity against Escherichia coli expressing CTX-M-15 in presence of piperacillin; format: functional
Escherichia coli [34] = assay: Antimicrobial activity against Escherichia coli expressing TEM1 in presence of piperacillin; format: functional
Escherichia coli [35] = assay: Antimicrobial activity against Escherichia coli expressing OXA-48 in presence of piperacillin; format: functional
Escherichia coli [36] = assay: Antimicrobial activity against Escherichia coli expressing CMY-2 in presence of piperacillin; format: functional
[37] = biological target: T4, Carbapenem-hydrolyzing beta-lactamase KPC (Klebsiella pneumoniae, UniProt Q9F663); assay: Inhibition of Klebsiella pneumoniae beta-lactamase KPC-2 using nitrocefin as substrate measured after 20 mins
[38] = Inhibition of Klebsiella pneumoniae beta-lactamase CMY-2 using nitrocefin as substrate measured after 20 mins
[39] = Inhibition of Escherichia coli beta-lactamase CTX-M-15 using nitrocefin as substrate measured after 20 mins
[40] = Binding affinity to KPC-2 (unknown origin) assessed as inhibition constant; set-up: species or system Homo sapiens
[41] = Binding affinity to CTX-M-14 (unknown origin) assessed as inhibition constant; set-up: species or system Homo sapiens
[42] = Inhibition of Enterobacter SHV-5 incubated for 15 mins
[43] = Inhibition of Enterobacter OXA-1 incubated for 15 mins
[44] = Inhibition of Enterobacter IMP-1 incubated for 15 mins
[45] = Inhibition of Enterobacter CTX-M-15 incubated for 15 mins
[46] = Inhibition of Enterobacter NDM-1 incubated for 15 mins
[47] = Inhibition of Enterobacter KPC-2 incubated for 15 mins
[48] = Inhibition of Enterobacter VIM-2 incubated for 15 mins
Beta-lactamase CTX-M-14 [49] = biological target: T2, Beta-lactamase CTX-M-14; assay: Inhibition of Escherichia coli beta-lactamase CTX-M-14
[50] = Inhibition of Aeromonas hydrophila IMP1 preincubated for 30 mins followed by nitrocefin solution measured by UV based microtitre plate analysis
[51] = Inhibition of Escherichia coli beta-lactamase CMY-2
[52] = Inhibition of Pseudomonas aeruginosa beta-lactamase OXA-2
Beta-lactamase OXA-23 = Beta-lactamase OXA-23 (Acinetobacter baumannii, UniProt Q9L4P2); assay: Inhibition of Acinetobacter baumannii beta-lactamase OXA-23
[53] = Inhibition of Escherichia coli beta-lactamase CTX-M-44
Beta-lactamase TEM-1 [54] = biological target: T1, Beta-lactamase TEM-1; assay: Inhibition of Escherichia coli beta-lactamase TEM-1
Beta-lactamase [55] = biological target: Beta-lactamase (Enterobacter cloacae, UniProt P05364); assay: Inhibition of Enterobacter cloacae AmpC
[56] = Inhibition of Escherichia coli beta-lactamase CTX-M-15
[57] = biological target: T4, Carbapenem-hydrolyzing beta-lactamase KPC; assay: Inhibition of Klebsiella pneumoniae beta-lactamase KPC-2
Beta-lactamase OXA-1 = Beta-lactamase OXA-1 (Escherichia coli, UniProt P13661); assay: Inhibition of Escherichia coli beta-lactamase OXA-1
[58] = Inhibition of Escherichia coli beta-lactamase TEM-10
[59] = Inhibition of VIM2 (unknown origin) using fluorescent cephalosporin FC5 as substrate incubated for 15 mins followed by substrate addition measured by fluorescence based analysis; set-up: species or system Homo sapiens
[60] = Inhibition of IMP28 (unknown origin) using fluorescent cephalosporin FC5 as substrate incubated for 15 mins followed by substrate addition measured by fluorescence based analysis; set-up: species or system Homo sapiens
[61] = biological target: T3, Metallo-beta-lactamase type 2; assay: Inhibition of NDM1 (unknown origin) using fluorescent cephalosporin FC5 as substrate incubated for 15 mins followed by substrate addition measured by fluorescence based analysis

## O=C(Nc1cccc(-c2nnn[nH]2)c1)c1cccc(F)c1
[1]
  Ki: 2800 µM

## O=C(Nc1cccc(-c2nnn[nH]2)c1)c1cc(C(F)(F)F)cc2[nH]cnc12
[2]
  Ki: 25.8 µM
[3]
  Ki: 0.089 µM
Beta-lactamase CTX-M-27
  Ki: 0.28 µM
[4]
  Ki: 478 µM
Beta-lactamase TEM-1 [5]
  Ki: Not Active
[6]
  Ki: 97.3 µM
[7]
  Ki: 0.25 µM
Beta-lactamase CTX-M-14 [8]
  Ki: 0.085 µM
Beta-lactamase [9]
  Ki: 387 µM

## O=C(CSc1nnc(-c2ccccc2C(=O)O)[nH]1)Nc1nc2ccccc2s1
[10]
  IC50: 1.2 µM
Beta-lactamase L1
  IC50: 32 µM
[11]
  IC50: 20 µM

## O=C(O)/C=C/c1cccc([C@H](NC(=O)Cc2cccs2)B(O)O)c1
[12]
  Ki: 3.8 µM
[13]
  Ki: 0.106 µM
[14]
  Ki: 0.01 µM
[15]
  Ki: 0.003 µM

## CC1=C[C@H]2CN(C(=O)N2OS(=O)(=O)O)[C@@H]1C(N)=O
[16]
  IC50: 0.004 µM
Beta-lactamase [17]
  IC50: 0.014 µM
[18]
  IC50: 0.19 µM

## O=C(O)C1=C(CSc2nnc(-c3ccc(-n4[se]c5ccccc5c4=O)cc3)[nH]2)CSC2[C@@H](NC(=O)c3ccccc3)C(=O)N12 (stereo not given in full)
[19]
  IC50: 4.86 µM
[20]
  IC50: 2.93 µM
[21]
  IC50: 6.68 µM
[22]
  IC50: 0.28 µM

## O=C(O)c1cn(CB(O)O)nn1
[23]
  IC50: 4.72 µM
[24]
  Ki: 6.1 µM

## C[C@]12CNC(=O)[C@H]1N1C[C@@H](C2)N(OS(=O)(=O)[O-])C1=O.[Na+]
Escherichia coli [25]
  MIC: 4 µg/mL
Escherichia coli [26]
  MIC: 4 µg/mL
Escherichia coli [27]
  MIC: 4 µg/mL
Escherichia coli [28]
  MIC: 4 µg/mL
Escherichia coli [29]
  MIC: 4 µg/mL
Escherichia coli [30]
  MIC: 8 µg/mL
Escherichia coli [31]
  MIC: 4 µg/mL
Escherichia coli [32]
  MIC: 4 µg/mL
Escherichia coli [33]
  MIC: 4 µg/mL
Escherichia coli [34]
  MIC: 4 µg/mL
Escherichia coli [35]
  MIC: 4 µg/mL
Escherichia coli [36]
  MIC: 2 µg/mL

## NS(=O)(=O)C1CC[C@@H]2CN1C(=O)N2OS(=O)(=O)O (stereo not given in full)
[37]
  IC50: 0.044 µM
[38]
  IC50: 0.116 µM
[39]
  IC50: 0.14 µM

## CC(c1nnn[nH]1)n1cnc2sc3c(c2c1=O)CCCC3 (single isomer, unassigned)
[40]
  Ki: 195 µM
[41]
  Ki: 2540 µM

## CCC(=O)N[C@H]1Cc2cccc(C(=O)O)c2OB1O [LEDABORBACTAM]
[42]
  IC50: 0.368 µM
[43]
  IC50: 0.066 µM
[44]
  IC50: > 100 µM
[45]
  IC50: 0.018 µM
[46]
  IC50: 38.1 µM
[47]
  IC50: 0.08 µM
[48]
  IC50: 9.04 µM

## NCCONC(=O)[C@@H]1CC[C@@H]2CN1C(=O)N2OS(=O)(=O)O [NACUBACTAM]
Beta-lactamase CTX-M-14 [49]
  IC50: 0.01 µM
[50]
  IC50: 1.4 µM
[51]
  IC50: 0.015 µM
[52]
  IC50: 1.07 µM
Beta-lactamase OXA-23
  IC50: 46.4 µM
[53]
  IC50: 0.022 µM
Beta-lactamase TEM-1 [54]
  IC50: 0.026 µM
Beta-lactamase [55]
  IC50: 0.845 µM
[56]
  IC50: 0.013 µM
[57]
  IC50: 0.869 µM
Beta-lactamase OXA-1
  IC50: 3.05 µM
[58]
  IC50: 0.096 µM

## O=C(O)CN(CC(=O)O)CC(=O)O [NITRILOTRIACETIC ACID]
[59]
  IC50: 2.4 µM
[60]
  IC50: 112 µM
[61]
  IC50: 1.3 µM
